Measured values taken from patent publication US20070038384A1, “Devices and assays for monitoring/measuring cellular dynamics to create subject profiles from primary cells” (priority 2003, published 2007).

Legend:
Type in all cases: cell-based
[1] = tested on: Human microvasular endothelial cells from lung (HMVEC-L); assay: Microtubule experiments, cell motility/patterning assay; conditions: circular micro-orifice, versus control; agents 10 mg/ml in Example 8
Description: Alternatively, the test agent can be added before the cells have grown to confluency, i.e. the test agent is added to the cells before being patterned through the micro-orifices 300. If the test agent has no effect on cell motility, the cells will spread and achieve the shape of the micro-orifice 300. In FIGS. 16 and 17, a micro-orifice 300 is circular in shape. In the left column of FIGS. 16 and 17 are the control panel, which illustrate the cells having grown to a confluent circular pattern.
A first layer 150 having multiple orifices was applied to a support 140. The orifices ([…]) were rendered inert to the adsorption of proteins and the adhesion of cells using the standard procedures described in earlier disclosures: silanes terminated with ethylene glycol groups were reacted covalently with the surface of the PDMS devices. The stencil was washed three times with PBS, and vacuum was applied for two minutes to remove air bubbles. Human microvasular endothelial cells from lung (HMVEC-L, Clonetics/Biowhittaker), were seeded into the macro-wells of the stencil at a density of 5×10^3 cells/cm2 into the dishes in growth medium (EGM, Clonetics/Biowhittaker), and washed with fresh medium after an initial attachment period of 30 minutes to one hour. After an overnight incubation in the membranes, cells were treated with the following microtubule-disrupting agents: nocodazole (10 mg/ml), colchicine (10 mg/ml), vinblastine (10 mg/ml), or paclitaxel (10 mg/ml). Control cells were left untreated. Two different experiments were then performed. In the first experiment, cells were treated with the compounds while maintained within the macro-wells of the stencil. After two hours of treatment, the cells were imaged, the stencil was peeled off, and the cells were fixed with cold methanol (−20° C.) for ten minutes and washed three times with PBS. Immunofluorescence staining was performed using a monoclonal antibody to alpha-tubulin (1:100 dilution, DM1a, Sigma), followed by a FITC-conjugated goat anti-mouse antibody (25 mg/ml, Rockland Immunochemicals) and DAPI (3 mg/ml, Sigma) to stain the nucleus. Stained cells were mounted under a glass coverslip with Fluoromount G (Southern Biotechnology Associates) and imaged in a Zeiss fluorescence microscope.
In the second experiment, the stencil was peeled at the time of compound addition. After two hours of treatment, one set of samples was fixed and stained as described above. Another set of samples was left in the treatment compound and imaged over time, to monitor cell motility. Images were taken at 0, 2, 4, 8, and 24 hours. Cell motility was determined by taking the average diameter of the micro-regions, using ImageProPlus imaging software.

[2] = tested on: 769-P cells (renal carcinoma); assay: Inhibition of cell motility of renal cells via MMP inhibition, 769-P; conditions: various concentrations
Description: (§1) Two renal cell lines were used to study the effect of matrix metalloproteinase (MMP) inhibition on cell motility. Standard protocols were used to plate 100 769-P cells (renal carcinoma, purchased from ATCC) and HK-2 (proximal tubule cells from human kidney, from ATCC) in qualitative cell migration assay plate.
(§2) After allowing the cells to attach and spread for 8 hours, the stencil and the first layer were removed and MMP inhibitor (GM6001, Calbiochem) was added at various concentrations.

[3] = tested on: HK-2 (proximal tubule cells from human kidney); assay: Inhibition of cell motility of renal cells via MMP inhibition, HK-2; conditions: HK-2, various concentrations
Description: as §1, §2

NIH-3T3 fibroblast cells = assay: Cell migration/motility assay, 3T3/TAXOL; conditions: 2 hours and 5 hours after removal of first layer, versus control cells
Excerpt: The cell migration/motility assay of the present invention allows one to study the effect of test agents and others both on cell motility and on cell shape. For example, cells may be patterned through micro-orifices, such as micro-orifices 300, of the first layer 150. The cells are allowed to attach to the support 140 and to grow to confluence. The walls of the micro-orifice 300 constrain the cell(s) and the cells take on the shape of the micro-orifice 300, e.g., circular. A test agent is applied through the micro-orifices 300 and is allowed to contact the cells. The first layer 150 is removed and the cells are observed. If the test agent affects cell movement, the cell will be “stuck” in place as it was patterned and may not change shape, i.e., it will remain circular if the patterning member had circular orifices. […] FIG. 15(b) is a graph of the effect of various concentrations of taxol on cell movement as performed by a cell migration/motility assay of the present invention.
Macro-wells orifices of a stencil engaged with a support were filled with PBS and a vacuum was applied for two minutes to remove air bubbles. NIH-3T3 fibroblast cells (prelabeled with green cell tracker, CMFDA, Molecular Probes) were collected in DMEM/10% bovine calf serum and plated in the macro-wells at a concentration of 2×10^4 cells/cm2. After one hour, unadhered cells were washed off with fresh medium. […]

endothelial cells = assay: Cell motility assay using endothelial cells with agonists and antagonists (FIG. 25); conditions: FIG. 25A
Description: FIG. 25 depicts a particular cell motility assay using endothelial cells and agonists and antagonists of such cells. […] In FIG. 25B, the concentration of VEGF is fixed. An antibody to VEGF is added in various concentrations. […] When an inhibitor to the VEGF receptor is added, the cells migrate at a such slower rate as depicted in FIG. 25C. […] Normally enzyme inhibition screens involve proteins and their substrates and not cells. FIG. 25D depicts enzyme inhibition screens in a cell based context.

[4] = tested on: MS1 (T antigen-immortalized endothelial cells); assay: Farnesyl transferase inhibition, cell motility assay in MS1; conditions: FTI-277 10 mm, time zero and four hours, versus control
Description: (§3) Using standard protocols, MS1 (T antigen-immortalized endothelial cells, ATCC) and SVR (H-ras-overexpressing derivative of MS1, ATCC) were plated into macrowells at densities of 12×10^3 and 6×10^3 cells/cm^2, respectively, in DMEM/5% fetal bovine serum. Unattached cells were washed off after 1 hour, and the cells were replenished with fresh media. To the media was also added farnesyl transferase inhibitor (FTI-277, Calbiochem) to concentration of […]. Cells were cultured overnight under fresh media in an incubator at 37° C. and 5% CO2. At the start of experiment, the stencil/first layer was removed after first on the support to allow cell migration. At different time points (time zero and time four hours) images were taken and analyzed for effects of FTI-277 on cell motility. FIG. 21 contains the pictorial results of an assay showing farnesyl transferase inhibition in MS1 and SVR cells.

[5] = tested on: SVR (H-ras-overexpressing derivative of MS1); assay: Farnesyl transferase inhibition, cell motility assay in SVR; conditions: SVR cells, FTI-277 10 mm, time zero and four hours, versus control
Description: as §3

CC[C@]1(O)C[C@@H]2CN(CCc3c([nH]c4ccccc34)[C@@](C(=O)OC)(c3cc4c(cc3OC)N(C)[C@H]3[C@@](O)(C(=O)OC)[C@H](OC(C)=O)[C@]5(CC)C=CCN6CC[C@]43[C@@H]65)C2)C1 [vinblastine]
cellular movement / achieving circular confluent pattern [1]: cellular movement arrested

COc1cc2c(c(OC)c1OC)-c1ccc(OC)c(=O)cc1[C@@H](NC(C)=O)CC2 [colchicine]
cellular movement / achieving circular confluent pattern [1]: cellular movement arrested

CNC(=O)[C@H](Cc1c[nH]c2ccccc12)NC(=O)[C@@H](CC(=O)NO)CC(C)C [GM6001]
cell motility [2]: reduces cell motility | cell motility [3]: no effect

CC(=O)O[C@H]1C(=O)[C@@]2(C)[C@H]([C@H](OC(=O)c3ccccc3)[C@]3(O)C[C@H](OC(=O)[C@H](O)[C@@H](NC(=O)c4ccccc4)c4ccccc4)C(C)=C1C3(C)C)[C@]1(OC(C)=O)CO[C@@H]1C[C@@H]2O [taxol, paclitaxel]
cell movement away from original pattern (NIH-3T3 fibroblast cells): retained their original circular pattern | cellular movement / achieving circular confluent pattern [1]: cellular movement arrested

COC(=O)Nc1nc2ccc(C(=O)c3cccs3)cc2[nH]1 [nocodazole]
cellular movement / achieving circular confluent pattern [1]: cellular movement arrested

VEGF
cell migration (endothelial cells): stimulates cells to migrate

COC(=O)[C@H](CCSC)NC(=O)c1ccc(NC[C@@H](N)CS)cc1-c1ccccc1 [FTI-277]
cell migration away from original starting positions [4]: control cells are shown to have migrated further away from their original starting positions than the cells treated with FTI | cell migration away from original starting positions [5]: control cells are shown to have migrated further away from their original starting positions than the cells treated with FTI
